From US10111874B2, “Combination therapies for treatment of cancer” (Araxes Pharma LLC, priority 2014, dated 2018)

Target: T1, KRAS G12C 1-169, his-tagged protein, GDP-loaded (Homo sapiens, UniProt P01116, G12C)
T1 construct: KRAS G12C 1-169, his-tagged protein, GDP-loaded
Assay: Biochemical assay: covalent binding to KRAS G12C analyzed by mass spectrometry; note: test concentration or dose not given here
Conditions: compounds 48-246, measured at 2 h

T1 sequence (P01116 1-169 isoform P01116-2 G12C): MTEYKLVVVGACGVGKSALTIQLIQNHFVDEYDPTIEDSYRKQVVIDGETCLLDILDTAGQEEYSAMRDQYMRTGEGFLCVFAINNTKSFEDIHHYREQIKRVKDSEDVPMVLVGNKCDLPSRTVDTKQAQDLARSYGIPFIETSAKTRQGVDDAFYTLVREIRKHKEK

| Structure (SMILES) | Binding % |
| --- | --- |
| C=CC(=O)N1CCN(c2ncnc3cc(-c4ccc[nH]c4=O)c(Cl)cc23)CC1 [Compound I-170, 3-(4-(4-acryloylpiperazin-1-yl)-6-chloroquinazolin-7-yl)pyridin-2(1H)-one] | + (+indicates binding activity from 5% to 25%) |
| C=CC(=O)N1CC(Nc2ncnc3cc(-c4ccccc4)c(Cl)cc23)C1 [Compound I-96, 1-(3-(6-chloro-7-phenylquinazolin-4-ylamino)azetidin-1-yl)prop-2-en-1-one] | + (+indicates binding activity from 5% to 25%) |
| C=CC(=O)N1CCN(c2ncnc3cc(-c4c(OC)ccc5ccccc45)c(Cl)cc23)CC1 [Compound I-202, 1-(4-(6-chloro-7-(2-methoxynaphthalen-1-yl)quinazolin-4-yl)piperazin-1-yl)prop-2-en-1-one] | +++ (+++indicates binding activity greater than 50% and up to 75%) |
| C=CC(=O)N1CCN(c2ncnc3cc(-c4ccccc4C(F)(F)F)c(Cl)cc23)CC1C(N)=O (stereo not drawn) [Compound I-121, 1-acryloyl-4-(6-chloro-7-(2-(trifluoromethyl)phenyl)quinazolin-4-yl)piperazine-2-carboxamide] | ++++ (++++indicates binding activity greater than 75%) |
| C=CC(=O)N1CCN(c2ncnc3cc(-c4ccccc4COC)c(Cl)cc23)CC1 [Compound I-103, 1-(4-(6-chloro-7-(2-(methoxymethyl)phenyl)quinazolin-4-yl)piperazin-1-yl)prop-2-en-1-one] | ++ (++indicates binding activity greater than 25% and up to 50%) |
| CN(C)C/C=C/C(=O)N1CCN(c2ncnc3cc(Cl)c(-c4ccc(Cl)cc4)cc23)CC1C#N (stereo not drawn) [Compound I-66, (E)-4-(7-Chloro-6-(4-chlorophenyl)quinazolin-4-yl)-1-(4-(dimethylamino)but-2-enoyl)piperazine-2-carbonitrile] | ++++ (++++indicates binding activity greater than 75%) |
| C=CC(=O)N1CCN(c2ncnc3cc(-c4cc(O)ccc4Cl)c(C(F)(F)F)cc23)CC1 [Compound I-207, 1-(4-(7-(2-chloro-5-hydroxyphenyl)-6-(trifluoromethyl)quinazolin-4-yl)piperazin-1-yl)prop-2-en-1-one] | ++++ (++++indicates binding activity greater than 75%) |
| C=CC(=O)N1CCN(c2ncnc3cc(-c4c(O)cccc4F)c(Cl)cc23)CC1 [Compound I-138, 1-(4-(6-chloro-7-(2-fluoro-6-hydroxyphenyl)quinazolin-4-yl)piperazin-1-yl)prop-2-en-1-one] | ++++ (++++indicates binding activity greater than 75%) |

Same assay, conditions: compounds 247-342, measured at 30 min

| Structure (SMILES) | Binding % |
| --- | --- |
| C=CC(=O)N1CCN(c2ncnc3cc(-c4cc(Cl)cc5cn[nH]c45)c(Cl)cc23)CC1 [Compound I-264, 1-(4-(6-chloro-7-(5-chloro-1H-indazol-7-yl)quinazolin-4-yl)piperazin-1-yl)prop-2-en-1-one] | ++ (++indicates binding activity greater than 25% and up to 50%) |
| C/C=C/C(=O)N1CCN(c2ncnc3c(F)c(-c4cc(O)cc5ccccc45)c(Cl)cc23)CC1C (stereo not drawn) [Compound 328, (E)-1-(4-(6-chloro-8-fluoro-7-(3-hydroxynaphthalen-1-yl)quinazolin-4-yl)-2-methylpiperazin-1-yl)but-2-en-1-one] | + (+indicates binding activity from 5% to 25%) |
| C=CC(=O)N1CCN(c2c(C#N)cnc3c(F)c(-c4c(O)ccc5ccccc45)c(Cl)cc23)CC1 [Compound I-269, 4-(4-acryloylpiperazin-1-yl)-6-chloro-8-fluoro-7-(2-hydroxynaphthalen-1-yl)quinoline-3-carbonitrile] | +++ (+++indicates binding activity greater than 50% and up to 75%) |

Same assay, conditions: determined at 2 hrs

| Structure (SMILES) | Binding % |
| --- | --- |
| C=CC(=O)N1CC(N2CCN(C(=O)CNc3cc(C4CCC4)c(Cl)cc3O)CC2)C1 [II-53, 1-(3-(4-(2-(4-chloro-5-cyclobutyl-2-hydroxyphenylamino)acetyl)piperazin-1-yl)azetidin-1-yl)prop-2-en-1-one] | ++ (++indicates binding activity greater than 20%) |
